Measured values reported in PubChem BioAssay (NCI).
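How tested: cells in 96-well plates exposed to compound for 48 hours at five concentrations. Abbreviation: GI50, concentration required for 50% inhibition of growth. TGI: concentration producing complete growth inhibition.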

Legend:
Assay in all cases: inhibition of tumour cell growth, NCI panel, 48 h
HT29 colon = test system: HT29 colon
LOX IMVI melanoma = test system: LOX IMVI melanoma
M14 melanoma = test system: M14 melanoma
K-562 leukemia = test system: K-562 leukemia
NCI/ADR-RES ovarian = test system: NCI/ADR-RES ovarian
DU-145 prostate = test system: DU-145 prostate
COLO 205 colon = test system: COLO 205 colon
HCT-116 colon = test system: HCT-116 colon
NCI-H522 lung = test system: NCI-H522 lung
BT-549 breast = test system: BT-549 breast
OVCAR-3 ovarian = test system: OVCAR-3 ovarian
SK-MEL-5 melanoma = test system: SK-MEL-5 melanoma
SW-620 colon = test system: SW-620 colon
NCI-H460 lung = test system: NCI-H460 lung
HOP-92 NSCLC = test system: HOP-92 NSCLC
SNB-19 CNS = test system: SNB-19 CNS
SF-268 CNS = test system: SF-268 CNS
TK-10 renal = test system: TK-10 renal
NCI-H226 lung = test system: NCI-H226 lung
CAKI-1 renal = test system: CAKI-1 renal
MDA-MB-231 breast = test system: MDA-MB-231 breast
PC-3 prostate = test system: PC-3 prostate
OVCAR-5 ovarian = test system: OVCAR-5 ovarian
RXF 393 renal = test system: RXF 393 renal
UO-31 renal = test system: UO-31 renal
SN12C renal = test system: SN12C renal
HOP-62 NSCLC = test system: HOP-62 NSCLC
T-47D breast = test system: T-47D breast
CCRF-CEM leukemia = test system: CCRF-CEM leukemia

## COC(=O)c1cc2oc(/C=C3/SC(=S)N(NC(C)=O)C3=O)cc2n1C
HT29 colon
  TGI: > 100 µM
LOX IMVI melanoma
  GI50: 11.1 µM
  TGI: 27.9 µM
M14 melanoma
  GI50: 10.8 µM
  TGI: 31.8 µM
K-562 leukemia
  GI50: 24.7 µM
  TGI: > 100 µM
NCI/ADR-RES ovarian
  GI50: 15.3 µM
  TGI: 51.4 µM
DU-145 prostate
  GI50: 8.76 µM
  TGI: 25.4 µM
COLO 205 colon
  GI50: 22.4 µM
  TGI: > 100 µM
HCT-116 colon
  GI50: 12.1 µM
  TGI: 31.1 µM
NCI-H522 lung
  GI50: 16.4 µM
  TGI: 55.4 µM
BT-549 breast
  GI50: 6.13 µM
  TGI: 22.7 µM
OVCAR-3 ovarian
  GI50: 19.2 µM
  TGI: 55 µM
SK-MEL-5 melanoma
  GI50: 12.6 µM
  TGI: 26.2 µM
SW-620 colon
  GI50: 7.51 µM
  TGI: 25.5 µM
NCI-H460 lung
  GI50: 8.26 µM
  TGI: > 100 µM
HOP-92 NSCLC
  GI50: 19.6 µM
  TGI: 44.5 µM
SNB-19 CNS
  GI50: 31.6 µM
  TGI: > 100 µM
SF-268 CNS
  GI50: 28.4 µM
  TGI: > 100 µM
TK-10 renal
  GI50: 26 µM
  TGI: 97.4 µM
NCI-H226 lung
  GI50: 21.5 µM
  TGI: 51.7 µM
CAKI-1 renal
  GI50: 10 µM
  TGI: 36.9 µM
MDA-MB-231 breast
  GI50: 21.5 µM
  TGI: 53.2 µM
PC-3 prostate
  GI50: 25.6 µM
  TGI: 68.4 µM
OVCAR-5 ovarian
  GI50: 21.7 µM
  TGI: 54.9 µM
RXF 393 renal
  GI50: 36.5 µM
  TGI: 87.7 µM
UO-31 renal
  GI50: 14.5 µM
  TGI: 92.7 µM
SN12C renal
  GI50: 21.9 µM
  TGI: 60.5 µM
HOP-62 NSCLC
  GI50: 21.7 µM
  TGI: 47.3 µM
T-47D breast
  GI50: 29.6 µM
  TGI: 90.7 µM
CCRF-CEM leukemia
  GI50: 11.8 µM
  TGI: 76 µM
